Data from patent US7482374B2, “Pyrrolidine-2-ones as Factor Xa inhibitors” (Glaxo Group Limited, priority 2003, dated 2009).
Where a name gives a salt, the structure may show the parent alone.

Biological target: T1, human Factor Xa (Homo sapiens, UniProt P00742)
T1 construct: containing human Factor Xa (final conc. Of 0.0003 U·ml−1)
Assay: In vitro assay for inhibition of Factor Xa (fluorogenic assay, Rhodamine 110 bis-CBZ-glycylglycyl-L-arginine amide substrate)
Assay type: biochemical
Conditions: Ki = IC50/1.6; 15 min preincubation, substrate 10 μM, room temperature, pH 7.4
Method: In Vitro Assay for Inhibition of Factor Xa
Compounds of the present invention were tested for their Factor Xa inhibitory activity as determined in vitro by their ability to inhibit human Factor Xa in a fluorogenic assay, using Rhodamine 110, bis-CBZ-glycylglycyl-L-arginine amide as the fluorogenic substrate. Compounds were diluted from a 10 mM stock solution in dimethylsulfoxide at appropriate concentrations. Assay was performed at room temperature using buffer consisting of: 50 mM Tris-HCl, 150 mM NaCl, 5 mM CaCl2, pH 7.4. containing human Factor Xa (final conc. Of 0.0003 U·ml−1). Compound and enzyme were preincubated for 15 min prior to addition of the substrate (final conc. of 10 μM). The reaction was stopped after 3 hrs with the addition of H-D-Phe-Pro-Arg-Chloromethylketone. An LJL-Analyst fluorimeter was used to monitor fluorescence with 485 nm excitation/535 nm emission. To obtain IC50 values the data were analysed using ActivityBase® and XLfit®.
Calculation of Ki Values: Ki=IC50/(1+[Substrate]/Km)
The Ki value for the above assay can be obtained by dividing the IC50 value by 1.6.

T1 sequence (P00742 235-488 limits assumed): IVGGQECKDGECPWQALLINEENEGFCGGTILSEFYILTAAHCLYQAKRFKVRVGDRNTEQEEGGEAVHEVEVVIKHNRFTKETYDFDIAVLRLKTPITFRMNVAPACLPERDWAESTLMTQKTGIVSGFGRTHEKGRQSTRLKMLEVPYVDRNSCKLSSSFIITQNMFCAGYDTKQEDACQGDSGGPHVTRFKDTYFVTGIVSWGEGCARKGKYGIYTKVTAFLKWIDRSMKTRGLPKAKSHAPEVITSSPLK
T1 sequence (P00742 41-179 partner limits assumed): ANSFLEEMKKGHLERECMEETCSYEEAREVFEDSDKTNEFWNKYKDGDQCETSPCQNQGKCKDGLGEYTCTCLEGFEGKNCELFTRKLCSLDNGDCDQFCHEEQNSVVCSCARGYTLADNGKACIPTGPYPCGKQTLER

SMILES	Ki
O=C1C(NS(=O)(=O)c2cc3ccc(Cl)cc3s2)CCN1c1ccc(-n2ccnc2CN2CCC(F)C2)cc1F (centres unmarked) [Example 6, 6-Chloro-N-[1-(2-fluoro-4-{2-[(3-fluoro-1-pyrrolidinyl)methyl]-1H-imidazol-1-yl}phenyl)-2-oxo-3-pyrrolidinyl]-1-benzothiophene-2-sulfonamide formate]	< 10 nM
COC1CN(Cc2nccn2-c2ccc(N3CCC(NS(=O)(=O)c4cc5ccc(Cl)cc5s4)C3=O)c(F)c2)C1 (centres unmarked) [Example 7, 6-Chloro-N-{1-[2-fluoro-4-(2-{[3-(methyloxy)-1-azetidinyl]methyl}-1H-imidazol-1-yl)phenyl]-2-oxo-3-pyrrolidinyl}-1-benzothiophene-2-sulfonamide formate]	< 10 nM

Now from value to molecule:

Ki	SMILES
< 10 nM	C/C(=C\S(=O)(=O)NC1CCN(c2ccc(-n3ccnc3CN3CCC3)cc2F)C1=O)c1ccc(Cl)s1 (centres unmarked) [Example 1, (1E)-N-(1-{4-[2-(1-Azetidinylmethyl)-1H-imidazol-1-yl]-2-fluorophenyl}-2-oxo-3-pyrrolidinyl)-2-(5-chloro-thienyl)-1-propene-1-sulfonamide formate]
< 10 nM	O=C1C(NS(=O)(=O)CCc2ccc(Cl)s2)CCN1c1ccc(-n2ccnc2CN2CCC2)cc1F (centres unmarked) [Example 2, N-(1-{4-[2-(1-Azetidinylmethyl)-1H-imidazol-1-yl]-2-fluorophenyl}-2-oxo-3-pyrrolidinyl)-2-(5-chloro-2-thienyl)ethanesulfonamide formate]
< 10 nM	C/C(=C\S(=O)(=O)NC1CCN(c2ccc(-n3ccnc3CN3CCC(F)C3)cc2F)C1=O)c1ccc(Cl)s1 (centres unmarked) [Example 5, (1E)-2-(5-Chloro-2-thienyl)-N-[1-(2-fluoro-4-{2-[(3-fluoro-1-pyrrolidinyl)methyl]-1H-imidazol-1-yl}phenyl)-2-oxo-3-pyrrolidinyl]-1-propene-1-sulfonamide formate]
